Test results as given in patent US10041937B2, “Macrophage identification agent, and identification method, sorting method, evaluation method, screening method and kit using the macrophage identifier agent” (CANON KABUSHIKI KAISHA, priority 2013, dated 2018).

Tests used:
[1] = system: M1 macrophages and M2 macrophages differentiated from THP-1 cells; assay: Identification of macrophage subtypes differentiated from human cell line THP-1; type: cell-based; details: for Resolution ratio R / Evaluation of macrophage subtype identification: M1 vs M2 macrophages differentiated from THP-1 cells; for Resolution ratio R: channel listed per compound (Table 6); for Evaluation of macrophage subtype identification: class based on resolution R (Table 6); for Peak position of M1 macrophage: THP-1-derived M1 macrophages; for Peak position of M1 macrophage / Peak position of M2 macrophage: fluorescence intensity peak by flow cytometry in the channel listed per compound (Table 6); for Peak position of M2 macrophage: THP-1-derived M2 macrophages; for Selectivity: subtype strongly stained, THP-1-derived macrophages (Table 6); for difference in the staining intensity between the M1 macrophages and the M2 macrophages / identification: THP-1 derived
Method: The fluorescent signals derived from the compounds (3), (4), (6), (7), (9), (11) to (13), (15), (17), (19) to (26), (28), (30) to (33), (35), (36), (38), (42) to (45), (48) to (62), (65), (67), (74) to (76), (82), (83) and (85) and the comparative compounds (1) and (2) were measured in channels suitable to the respective compounds. Histograms were prepared by plotting fluorescence intensities obtained in the respective channels on the abscissa and plotting the numbers of cells at each fluorescence intensity on the ordinate. A difference between a fluorescence intensity (FM1) at a peak top of the histogram of the M1 macrophage and a fluorescence intensity (FM2) at a peak top of the histogram of the M2 macrophage is divided by a sum of a peak width (WM1) of the histogram of the M1 macrophage and a peak width (WM2) of the histogram of the M2 macrophage, so as to obtain a resolution R, which was used as an index of the identification ability for a subtype (see the following expression (1)). Resolution R=|FM1−FM2|/(WM1+WM2) Expression (1)
Based on the thus obtained values of the resolution R, the identification abilities for the subtypes of the compounds (3), (4), (6), (7), (9), (11) to (13), (15), (17), (19) to (26), (28), (30) to (33), (35), (36), (38), (42) to (45), (48) to (62), (65), (67), (74) to (76), (82), (83) and (85) and the comparative compounds (1) and (2) were evaluated as any of A to C according to the following criteria, and if the resolution R was 0.15 or more, the compound was determined to be good in the subtype identification.
The subtypes were identified by using the compound (1) in the same manner as in Example 1 except that the macrophage subtypes differentiated from the mouse bone marrow cells were changed to macrophage subtypes differentiated from a cell line established from human acute monocytic leukemia.
The culture of subtypes was performed with reference to NPL 10. Specifically, THP-1 cells purchased from JCRB Cell Bank of National Institute of Biomedical Innovation, that is, a cell line established from human acute monocytic leukemia, were subcultured several times, and the resultant cells were dispersed to a concentration of 5.0×10^5/mL in an RPMI1640 containing 10% FBS and 1% P/S, and 5.0×10^6 cells were seeded in a 100 mm dish. The monocytes were differentiated into macrophages by incubating the resultant in the presence of 5% CO2 at 37° C. for 2 days with 500 ng of PMA added thereto. After exchanging the medium, by adding 200 ng of interferon-γ and 1 μg of polyliposaccharide (both manufactured by Pepro Tech) to the medium, the cells were differentiated to the subtype M1. Besides, by adding 200 ng of IL-4 and IL-13, the cells were differentiated to the subtype M2. After incubation performed in the presence of 5% CO2 at 37° C. for 24 hours, the resultant was rinsed with PBS, and PBS containing 0.25% trypsin and 1 mM EDTA (ethylenediaminetetraacetic acid) was used for collecting, from the dish, the macrophages having been differentiated to the subtypes M1 and M2.
Specifically, fluorescent signals derived from the compounds (1) (3) (4) (12) and (15) were measured by using the channels which are appropriate for each of the compounds and the identification abilities for the subtypes of the compounds were evaluated based on the values of the resolution R.

[2] = system: M1 macrophages and M2 macrophages differentiated from mouse bone marrow cells; assay: Subtype identification by staining and flow cytometry of M1 and M2 macrophages differentiated from mouse bone marrow cells; type: cell-based, Balb/c mouse; details: for difference in the staining intensity between the M1 macrophages and the M2 macrophages / identification: mouse bone marrow derived; for Selectivity: subtype strongly stained
Summary of the method: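 Balb/c mouse bone marrow cells were differentiated to macrophages with 50 ng/mL M-CSF over two 3–4-day periods, then polarized for 3 days to M1 (interferon-γ plus polyliposaccharide) or M2 (IL-4). Live cells (aqua dye-negative) were analysed by flow cytometry; resolution R = |FM1−FM2|/(WM1+WM2) from histogram peak positions and widths indexed subtype discrimination.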

[3] = system: mixture of the M1 macrophages and the M2 macrophages; assay: Sorting of subtypes from a mixture of M1 and M2 macrophages with an FACS apparatus; type: cell-based, mouse; details: compound 1 μM; for sorting of identified M1 and M2 macrophages: FACS apparatus; for subtype more strongly stained: mixed M1 and M2 macrophages
[4] = R=|FM1−FM2|/(WM1+WM2), compound 1 μM
[5] = fluorescence intensity at peak top of histogram, compound 1 μM, 37° C., 30 minutes
[6] = M1 vs M2 macrophages from mouse bone marrow cells, general formula (10) dyes (Table 8)
[7] = class based on resolution R, general formula (10) dyes (Table 8)
[8] = mouse bone marrow-derived M1 macrophages, channel listed per compound, general formula (10) dyes (Table 8)
[9] = mouse bone marrow-derived M2 macrophages, channel listed per compound, general formula (10) dyes (Table 8)
[10] = M1 vs M2 macrophages from mouse bone marrow cells, general formula (6) dyes (Table 7)
[11] = class based on resolution R, general formula (6) dyes (Table 7)
[12] = mouse bone marrow-derived M1 macrophages, channel listed per compound, general formula (6) dyes (Table 7)
[13] = mouse bone marrow-derived M2 macrophages, channel listed per compound, general formula (6) dyes (Table 7)

Structure (SMILES)	Resolution ratio R [1]	Evaluation of macrophage subtype identification [1]	Peak position of M1 macrophage [1]	Peak position of M2 macrophage [1]	Selectivity [1]	Resolution ratio R [2, 4]	Peak position of M1 macrophage [2, 5]	Peak position of M2 macrophage [2, 5]	Evaluation of macrophage subtype identification ([2]; rated from resolution R)	also measured
O=C(O)CCN1C(=O)/C(=C\c2ccc3c(c2)C2CCCC2N3Cc2ccccc2)SC1=S (stereo not shown) [compound (3)]	0.257	B (the compound is good in the subtype identification (namely, the resolution R is 0.15 or more and less than 0.5))	9.63	12.3	M2	0.622	11.2	25.0	A (The compound is very good in the subtype identification (namely, the resolution R is 0.5 or more))	
CCN(CC)c1ccc2cc(-c3nc4cc(Cl)ccc4o3)c(=O)oc2c1 [compound (120)]										sorting of identified M1 and M2 macrophages [3]: could be each sorted with an FACS apparatus; subtype more strongly stained [3]: stain the M1 macrophages more strongly than the M2 macrophages; subtype more strongly stained ([1]; THP-1 derived M1 and M2): the M1 macrophages were stained more strongly by the compound (120) than the M2 macrophages; Resolution ratio R [2, 6]: 0.676; Evaluation of macrophage subtype identification [2, 7]: A (The compound is very good in the subtype identification (namely, the resolution R is 0.5 or more)); Peak position of M1 macrophage [2, 8]: 10.1; Peak position of M2 macrophage [2, 9]: 5.60; subtype more strongly stained ([2]; two compounds used in combination, each 1 μM): more strongly stain the M1 macrophages than the M2 macrophages
CCN1c2ccc(/C=C3/SC(=S)N(CCC(=O)O)C3=O)cc2C2CCCC21 (stereo not shown) [(15)]	0.216	B (the compound is good in the subtype identification (namely, the resolution R is 0.15 or more and less than 0.5))	5.62	7.4	M2	0.700	7.52	10.5	A (The compound is very good in the subtype identification (namely, the resolution R is 0.5 or more))	
COc1ccc(N2c3ccc(/C=C4\C(=O)NC(=O)C(C#N)=C4C)cc3C3CCCC32)cc1 (stereo not shown) [(2), reference compound]						0.007	0.86	1.05	C (the compound cannot identify the subtypes (namely, the resolution R is less than 0.15))	difference in the staining intensity between the M1 macrophages and the M2 macrophages / identification [1]: no difference in the staining intensity; difference in the staining intensity between the M1 macrophages and the M2 macrophages / identification [2]: no difference in the staining intensity
CC1(C)C(/C=C/C=C/C=C/C=C2\N(CCCCS(=O)(=O)[O-])c3ccc4ccccc4c3C2(C)C)=[N+](CCCCS(=O)(=O)[O-])c2ccc3ccccc3c21.[Na+] [compound (86)]										sorting of identified M1 and M2 macrophages [3]: could be each sorted with an FACS apparatus; subtype more strongly stained [3]: stain the M2 macrophages more strongly than the M1 macrophages; Resolution ratio R [2, 10]: 0.602; Evaluation of macrophage subtype identification [2, 11]: A (The compound is very good in the subtype identification (namely, the resolution R is 0.5 or more)); Peak position of M1 macrophage [2, 12]: 2.27; Peak position of M2 macrophage [2, 13]: 6.37
O=C(O)CN1C(=O)/C(=C\c2cc(Br)c3c(c2)C2CCCC2N3c2ccc(Br)cc2)SC1=S (stereo not shown) [(12)]	0.276	B (the compound is good in the subtype identification (namely, the resolution R is 0.15 or more and less than 0.5))	37.4	46.5	M2	0.594	50.7	97.7	A (The compound is very good in the subtype identification (namely, the resolution R is 0.5 or more))	
CCC1=C(CC)c2cc3[nH]c(cc4nc(cc5[nH]c(cc1n2)c(CC)c5CC)C(CC)=C4CC)c(CC)c3CC [(1), reference compound]						0.006	1.70	1.86	C (the compound cannot identify the subtypes (namely, the resolution R is less than 0.15))	difference in the staining intensity between the M1 macrophages and the M2 macrophages / identification [1]: no difference in the staining intensity; Resolution ratio R [2, 10]: 0.006; Resolution ratio R [2, 6]: 0.006; Resolution ratio R ([2]; M1 vs M2 macrophages from mouse bone marrow cells, general formula (11) dyes (Table 9)): 0.006; Evaluation of macrophage subtype identification [2, 11]: C (the compound cannot identify the subtypes (namely, the resolution R is less than 0.15)); Evaluation of macrophage subtype identification [2, 7]: C (the compound cannot identify the subtypes (namely, the resolution R is less than 0.15)); Evaluation of macrophage subtype identification ([2]; class based on resolution R, general formula (11) dyes (Table 9)): C (the compound cannot identify the subtypes (namely, the resolution R is less than 0.15)); difference in the staining intensity between the M1 macrophages and the M2 macrophages / identification [2]: no difference in the staining intensity; Peak position of M1 macrophage [2, 12]: 1.70; Peak position of M1 macrophage [2, 8]: 1.70; Peak position of M1 macrophage ([2]; mouse bone marrow-derived M1 macrophages, channel listed per compound, general formula (11) dyes (Table 9)): 1.70; Peak position of M2 macrophage [2, 13]: 1.86; Peak position of M2 macrophage [2, 9]: 1.86; Peak position of M2 macrophage ([2]; mouse bone marrow-derived M2 macrophages, channel listed per compound, general formula (11) dyes (Table 9)): 1.86; Selectivity ([2]; general formula (6) dyes (Table 7)): No; Selectivity ([2]; general formula (10) dyes (Table 8)): No
COC(=O)CCC(C(=O)OC)N1C(=O)/C(=C\c2ccc3c(c2)C2CCCC2N3c2ccc(OC)cc2)SC1=S (stereo not shown) [compound (4)]	0.372	B (the compound is good in the subtype identification (namely, the resolution R is 0.15 or more and less than 0.5))	26.5	17.9	M1	1.125	158	45.4	A (The compound is very good in the subtype identification (namely, the resolution R is 0.5 or more))	
